The text below walks through data of patent publication US12122785B2, “Substituted pyridines, pyridazines, pyrimidines, and 1,2,4-triazines as TYK2 inhibitors” (Sudo Biosciences Limited, priority 2021, dated 2024).

Broadly, the pIC50 is the negative decadic logarithm of the IC50, by convention in mol/L.

Test [1] deals with TYK2 pseudokinase (JH2); IL-23-stimulated HEK-Blue IL-23 cells. The experiment in a line: HEK-Blue IL-23 reporter assay (STAT3-inducible SEAP) for profiling TYK2 pseudokinase (JH2) inhibition. The format is cell-based. The following applies: 10 ng/mL human recombinant IL-23, SEAP readout, read-out: IL23 (TYK2 inhibitory activity, IC50). In short, it runs like this: (§1)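 Serial compound dilutions preincubated 60 min with cells. IL-23: 10 ng/mL, 22-24 h. IFNα: 1 ng/mL, 16-18 h. QUANTI-Blue SEAP detection.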
(A reporter such as luciferase makes a cellular process visible.)

The test system of test [2] is IFNγ-stimulated HEK-Blue IFNγ reporter cells. The experiment in a line: HEK-Blue IFNγ reporter assay (STAT1-inducible SEAP) for determining selectivity. The format is cell-based. The note with it: 50 ng/mL human recombinant IFNγ, 24 hours, read-out: IFN-γ SEAP selectivity assay IC50. The method in brief: (§2)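 Cells were plated for 20-22 h, then pretreated with serially diluted compound for 60 min. They were stimulated for 24 h with 4 ng/mL human recombinant IL-2 or 50 ng/mL human recombinant IFNγ, and SEAP induction was read with QUANTI-Blue.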

Another test has as its target T1, JAK2 kinase domain (JH1) (Homo sapiens, UniProt O60674).
T1 construct: recombinant purified His or GST-tagged catalytic domain for each enzyme; made in house
The experiment in a line: HTRF-based selectivity assay, JAK2 catalytic domain. The format is biochemical. The following applies: 14.7 μM ATP. In short, it runs like this: (§3)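 Recombinant His- or GST-tagged JAK catalytic domains (JAK1 80.6, JAK2 2.1, JAK3 171.8 ng/mL) preincubated with compound 5-20 min at RT, then ATP (JAK1 21.43, JAK2 14.7, JAK3 2.12 μM) plus peptide substrate (454.7, 200, 257.4 nM respectively) added. HEPES buffer with MgCl2, 60 min at 26.5 °C; HTRF read-out.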
On the technique in general: TR-FRET usually uses a lanthanide donor and a delayed reading to cut background.

In another test the target is T2, TYK2 kinase domain (JH1) (Homo sapiens, UniProt P29597).
T2 construct: recombinant purified His or GST-tagged catalytic domain for each enzyme; made in house
T2 sequence (P29597 897-1176 limits assumed): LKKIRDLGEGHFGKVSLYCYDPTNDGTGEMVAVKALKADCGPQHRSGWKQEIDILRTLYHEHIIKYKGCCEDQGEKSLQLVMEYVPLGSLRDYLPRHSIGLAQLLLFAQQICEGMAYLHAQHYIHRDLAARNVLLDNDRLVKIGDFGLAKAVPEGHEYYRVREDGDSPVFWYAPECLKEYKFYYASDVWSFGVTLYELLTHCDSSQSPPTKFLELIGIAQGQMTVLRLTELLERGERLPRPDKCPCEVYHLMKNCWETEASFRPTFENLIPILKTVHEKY
The experiment in a line: HTRF-based selectivity assay, TYK2 catalytic domain. The format is biochemical. The following applies: 20 μM ATP.

The target in another test is T3, JAK3 kinase domain (JH1) (Homo sapiens, UniProt P52333).
T3 construct: recombinant purified His or GST-tagged catalytic domain for each enzyme; purchased Carna biosciences 08-046
T3 sequence (P52333 822-1111 limits assumed): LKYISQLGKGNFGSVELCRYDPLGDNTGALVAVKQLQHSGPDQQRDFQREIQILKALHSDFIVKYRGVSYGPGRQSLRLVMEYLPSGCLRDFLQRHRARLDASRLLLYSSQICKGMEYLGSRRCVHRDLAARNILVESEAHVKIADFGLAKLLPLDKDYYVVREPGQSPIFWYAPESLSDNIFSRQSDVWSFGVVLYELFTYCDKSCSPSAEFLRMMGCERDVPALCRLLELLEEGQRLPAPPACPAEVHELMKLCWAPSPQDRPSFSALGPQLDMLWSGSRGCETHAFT
The experiment in a line: HTRF-based selectivity assay, JAK3 catalytic domain. The format is biochemical. The note with it: 2.12 μM ATP. The procedure: Example B-2: HTRF-Based Selectivity Assay
The ability of compounds to inhibit the activity of JAK1, JAK2, JAK3 and TYK2 is measured using a recombinant purified His or GST-tagged catalytic domain for each enzyme (JAK1, JAK2 and TYK2 are generated in-house; JAK3 was purchased from Carna biosciences, Cat #08-046) in an HTRF format biochemical assay. The reactions employs a commercial peptide substrate from Cisbio (Cat #62TK0PEC). The basic assay protocol is as follows: first, 2.5 μL of diluted compounds (4×) in DMSO are dispensed into a 384-well Optiplate. Next, 2.5 μL of enzyme (final concentrations for enzymes are: TYK2—700 ng/mL, JAK1—80.6 ng/mL, JAK2—2.1 ng/mL and JAK3—171.8 ng/mL) is added and incubated at RT for 5-20 min. Finally, 5 μl of mixture of 2×ATP [Final concentration 20 μM for TYK2, 21.43 μM for JAK1, 14.7 μM for JAK2 and 2.12 μM for JAK3]+2× Substrate [Final concentration 217 nM for TYK2, 454.7 nM for JAK1, 200 nM for JAK2 and 257.4 nM for JAK3] is added to 384 well Optiplate. Composition of Kinase assay buffer used in the assay is as follows: HEPES 50 mM, EGTA 1 mM, MgCl2 10 mM, DTT 2 mM, Tween-20 0.01% and water. Then the plates are shaken and then incubated at 26.5° C. for 60 min.

The next test has as its target T4, JAK1 kinase domain (JH1) (Homo sapiens, UniProt P23458).
T4 construct: recombinant purified His or GST-tagged catalytic domain for each enzyme; made in house
As to the kind of experiment: HTRF-based selectivity assay, JAK1 catalytic domain. Format: biochemical. The following applies: 21.43 μM ATP, read-out: JAK-JHI (IC50). The method in brief:
as §3

Test [3] has as its system IL-2-stimulated HEK-Blue IL-2 reporter cells. The experiment in a line: HEK-Blue IL-2 reporter assay (STAT5-inducible SEAP) for determining selectivity. Format: cell-based. The following applies: 4 ng/mL human recombinant IL-2, 24 hours. The method in brief: as §2
Test [4] relates to TYK2 pseudokinase (JH2); IFNα-stimulated HEK-Blue IFNα/β cells. The experiment in a line: HEK-Blue IFNα/β reporter assay (STAT1-inducible SEAP) for profiling TYK2 pseudokinase (JH2) inhibition. Format: cell-based. The following applies: 1 ng/mL human recombinant IFNα, SEAP readout, read-out: IFNα (TYK2 inhibitory activity, IC50). The method in brief:
as §1

pIC50: −log10 of the molar value.

T4 sequence (P23458 875-1153 limits assumed): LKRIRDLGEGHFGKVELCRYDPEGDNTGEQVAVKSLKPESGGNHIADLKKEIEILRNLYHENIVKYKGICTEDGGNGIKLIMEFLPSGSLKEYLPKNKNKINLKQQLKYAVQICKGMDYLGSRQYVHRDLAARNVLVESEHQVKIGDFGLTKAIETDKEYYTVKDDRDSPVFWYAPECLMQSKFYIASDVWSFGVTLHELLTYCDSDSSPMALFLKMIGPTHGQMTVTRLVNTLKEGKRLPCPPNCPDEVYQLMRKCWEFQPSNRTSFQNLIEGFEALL
T1 sequence (O60674 849-1124 limits assumed): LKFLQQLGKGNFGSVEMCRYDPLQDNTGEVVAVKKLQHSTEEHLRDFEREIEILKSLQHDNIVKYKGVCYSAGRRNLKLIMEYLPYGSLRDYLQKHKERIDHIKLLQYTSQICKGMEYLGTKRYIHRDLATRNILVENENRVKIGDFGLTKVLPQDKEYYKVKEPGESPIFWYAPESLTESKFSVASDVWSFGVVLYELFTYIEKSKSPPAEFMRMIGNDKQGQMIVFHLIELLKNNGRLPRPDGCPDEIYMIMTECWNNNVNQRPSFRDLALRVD

On to `[2H]C([2H])([2H])NC(=O)c1cnc(NC(=O)C2CC2)cc1Nc1cccc2c1N(C)Cc1cnn(C)c1-2` [Compound 51, 6-(cyclopropanecarboxamido)-4-((1,5-dimethyl-4,5-dihydro-1H-pyrazolo[4,3-c]quinolin-6-yl)amino)-N-(methyl-d3)nicotinamide], for which the pIC50 in test [1] is more than 7.52; in test [2] it was less than 6.00; against JAK2 kinase domain (JH1) it was less than 6.00; at TYK2 kinase domain (JH1), less than 6.00; against JAK3 kinase domain (JH1), less than 6.00; on JAK1 kinase domain (JH1), less than 6.00. In addition, the results for the negative logarithm of the IC50 (pIC50) in test [3] and in test [4] were less than 6.00 and 6.52 to 7.52, respectively.

For `COC(=O)c1cnc(NC(=O)C2CC2)cc1Nc1cccc2c1N(C)Cc1cn(C)nc1-2` [Compound 60, methyl 6-(cyclopropanecarboxamido)-4-((2,5-dimethyl-4,5-dihydro-2H-pyrazolo[4,3-c]quinolin-6-yl)amino)nicotinate], the pIC50 is more than 7.52 in test [1]; less than 6.00 in test [2]; less than 6.00 against JAK2 kinase domain (JH1); less than 6.00 against TYK2 kinase domain (JH1); less than 6.00 at JAK3 kinase domain (JH1); less than 6.00 at JAK1 kinase domain (JH1). Besides, the pIC50 was less than 6.00 in test [3] and more than 7.52 in test [4].

For the compound `[2H]C([2H])([2H])NC(=O)c1nnc(NC(=O)C2CC2)cc1Nc1cccc2c1N(C)Cc1cn(C)nc1-2` [Compound 15, 6-(cyclopropanecarboxamido)-4-((2,5-dimethyl-4,5-dihydro-2H-pyrazolo[4,3-c]quinolin-6-yl)amino)-N-(methyl-d3)pyridazine-3-carboxamide], the pIC50 in test [1] is more than 7.52; in test [2], less than 6.00; against JAK2 kinase domain (JH1) it was less than 6.00; at TYK2 kinase domain (JH1) it was less than 6.00; against JAK3 kinase domain (JH1) it was less than 6.00; on JAK1 kinase domain (JH1), less than 6.00. Further, the negative-log IC50 (pIC50) in test [3] was less than 6.00; in test [4] it was more than 7.52.

Take `[2H]C([2H])([2H])NC(=O)c1nnc(NC(=O)C2CC2)cc1Nc1cccc2c1N(C)Cc1c[nH]nc1-2` [Compound 27, 6-(cyclopropanecarboxamido)-N-(methyl-d3)-4-((5-methyl-4,5-dihydro-2H-pyrazolo[4,3-c]quinolin-6-yl)amino)pyridazine-3-carboxamide]: the pIC50 in test [1] is more than 7.52; in test [2], 6.52 to 7.52; at JAK2 kinase domain (JH1), less than 6.00; against TYK2 kinase domain (JH1) it was less than 6.00; on JAK3 kinase domain (JH1) it was less than 6.00; at JAK1 kinase domain (JH1), less than 6.00. Further, the results for the negative logarithm of the IC50 (pIC50) in test [3] and in test [4] were less than 6.00 and more than 7.52, respectively.

On to `[2H]C([2H])([2H])NC(=O)c1cnc(Nc2cc(C)nc(C)n2)cc1Nc1cccc2c1OCc1cn(C)nc1-2` [Compound 9, 6-((2,6-dimethylpyrimidin-4-yl)amino)-N-(methyl-d3)-4-((2-methyl-2,4-dihydrochromeno[4,3-c]pyrazol-6-yl)amino)nicotinamide], for which the pIC50 in test [1] is more than 7.52; in test [2], 6.00 to 6.52; at JAK2 kinase domain (JH1), less than 6.00; against TYK2 kinase domain (JH1), less than 6.00; against JAK3 kinase domain (JH1) it was less than 6.00; on JAK1 kinase domain (JH1), less than 6.00. In addition, the pIC50 in test [3] was less than 6.00; in test [4], 6.52 to 7.52.

Take `[2H]C([2H])([2H])NC(=O)c1cnc(NC(=O)C2CC2)cc1Nc1cccc2c1OCc1cn(C)nc1-2` [Compound 6, 6-(cyclopropanecarboxamido)-N-(methyl-d3)-4-((2-methyl-2,4-dihydrochromeno[4,3-c]pyrazol-6-yl)amino)nicotinamide]: the pIC50 was 6.52 to 7.52 in test [1]; less than 6.00 in test [2]; less than 6.00 at JAK2 kinase domain (JH1); less than 6.00 on TYK2 kinase domain (JH1); less than 6.00 on JAK3 kinase domain (JH1); less than 6.00 at JAK1 kinase domain (JH1). Also, the pIC50 in test [3] is less than 6.00; in test [4], 6.52 to 7.52.

For `CNC(=O)c1nnc(Nc2ccc(F)cn2)cc1Nc1cccc2c1OCc1cn(C)nc1-2` [Compound 1, 6-((5-fluoropyridin-2-yl)amino)-N-methyl-4-((2-methyl-2,4-dihydrochromeno[4,3-c]pyrazol-6-yl)amino)pyridazine-3-carboxamide], the pIC50 is 6.52 to 7.52 in test [1]; 6.00 to 6.52 in test [2]; less than 6.00 against JAK2 kinase domain (JH1); 6.00 to 6.52 at TYK2 kinase domain (JH1); less than 6.00 at JAK3 kinase domain (JH1); less than 6.00 on JAK1 kinase domain (JH1). Moreover, the pIC50 in test [3] is 6.00 to 6.52; in test [4], 6.52 to 7.52.

In the case of `[2H]C([2H])([2H])NC(=O)c1cnc(Nc2ccc(F)cn2)cc1Nc1cccc2c1OCc1cn(C)nc1-2` [Compound 7, 6-((5-fluoropyridin-2-yl)amino)-N-(methyl-d3)-4-((2-methyl-2,4-dihydrochromeno[4,3-c]pyrazol-6-yl)amino)nicotinamide], the pIC50 in test [1] is 6.52 to 7.52; in test [2], 6.00 to 6.52; at JAK2 kinase domain (JH1) it was less than 6.00; at TYK2 kinase domain (JH1) it was less than 6.00; against JAK3 kinase domain (JH1) it was less than 6.00; at JAK1 kinase domain (JH1), less than 6.00. For the same compound, the pIC50 in test [3] was less than 6.00; in test [4], 6.00 to 6.52.

In the case of `CNC(=O)c1nnc(NC(=O)C2CC2)cc1Nc1cccc2c1OCc1cn(C)nc1-2` [Compound 2, 6-(cyclopropanecarboxamido)-N-methyl-4-((2-methyl-2,4-dihydrochromeno [4,3-c]pyrazol-6-yl)amino)pyridazine-3-carboxamide], the negative logarithm of the IC50 (pIC50) was 6.52 to 7.52 in test [1]; 6.00 to 6.52 in test [2]; less than 6.00 against JAK2 kinase domain (JH1); less than 6.00 against TYK2 kinase domain (JH1); less than 6.00 against JAK3 kinase domain (JH1); less than 6.00 at JAK1 kinase domain (JH1). Moreover, the negative-log IC50 (pIC50) was less than 6.00 in test [3] and 6.00 to 6.52 in test [4].

Consider `[2H]C([2H])([2H])NC(=O)c1cnc(NC(=O)C2CC2)cc1Nc1cccc2c1N(C)Cc1c[nH]nc1-2` [Compound 23, 6-(cyclopropanecarboxamido)-N-(methyl-d3)-4-((5-methyl-4,5-dihydro-2H-pyrazolo[4,3-c]quinolin-6-yl)amino)nicotinamide], for which the pIC50 in test [1] was more than 7.52; in test [2], less than 6.00; at JAK2 kinase domain (JH1), less than 6.00; on TYK2 kinase domain (JH1), less than 6.00; at JAK3 kinase domain (JH1), less than 6.00; at JAK1 kinase domain (JH1) it was less than 6.00. Moreover, the pIC50 in test [3] was less than 6.00; in test [4], more than 7.52.

For the compound `Cn1cc2c(n1)-c1cccc(Nc3cc(Nc4ccc(F)cn4)nnc3C(N)=O)c1OC2` [Compound 8, 6-((5-fluoropyridin-2-yl)amino)-4-((2-methyl-2,4-dihydrochromeno[4,3-c]pyrazol-6-yl)amino)pyridazine-3-carboxamide], the pIC50 is more than 7.52 in test [1]; more than 7.52 in test [2]; 6.00 to 6.52 at JAK2 kinase domain (JH1); less than 6.00 on TYK2 kinase domain (JH1); less than 6.00 at JAK3 kinase domain (JH1); less than 6.00 on JAK1 kinase domain (JH1). In addition, the pIC50 is 6.00 to 6.52 in test [3] and 6.52 to 7.52 in test [4].
